The values below come from US20120309622A1, “HERBICIDES CONTAINING SUBSTITUTED THIEN-3-YL-SULPHONYLAMINIO(THIO)CARBONYL-TRIAZOLIN(ETHI)ONES” (BAYER INTELLECTUAL PROPERTY GMBH, priority 2001, published 2012).

What all share (format): in vivo
The test system of one assay is Veronica persicaria. As to the kind of experiment: Post-emergence test/greenhouse, % damage after three weeks. As to the method: (§1) The expected action for a given combination of two herbicides can be calculated as follows (cf. COLBY, S. R.: “Calculating synergistic and antagonistic responses of herbicide combinations”, Weeds 15, pages 20-22, 1967):
(§2) If the actual damage exceeds the calculated value, the combination has a superadditive effect, that is to say a synergistic effect.
(§3) Test plants are grown under control conditions (temperature and light).
(§4) Following the spray application, the plant containers are kept in the greenhouse under constant light and temperature conditions.
(§5) After three weeks, the degree of damage to the plants is rated in % damage in comparison to the development of the untreated control.

The test system of another assay is Bromus secalinus. The assay is described as above. The protocol:
as §1, §2, §3, §4, §5

A further assay concerns Ipomoea hederacea. Described as above.
Source text: as §1
(§6) If • X=% damage by herbicide A (active compound of the formula I) at an application rate of p kg/ha and • Y=% damage by herbicide B (active compound of the formula II) at an application rate of q kg/ha and • E=the expected damage of herbicides A+B at an application rate of p+q kg/ha, then
as §2
(§7) Test plants are grown under control conditions (temperature and light). Once the plants have reached a height of 5 to 15 cm, the test compound or the combination of test compounds is applied by spraying such that the particular amounts of active compound desired are applied per unit area. The concentration of the spray liquor is chosen so that the particular amounts of active compound desired are applied in 500 litres of water/ha.
as §4, §5
(§8) The figures denote: • 0%=no effect (like untreated control) • 100%=total destruction

Another assay relates to Viola arvensis. The description is as above. The conditions noted are these: 15 g of ai/ha.
Source text: as §1, §6, §2, §7, §4, §5, §8

Another assay deals with Polygonum convolvolus. The description is as above.
A further assay relates to Digitaria sanguinalis. The assay is described as above.
Source text: as §1, §6, §2, §7, §4, §5, §8

The next assay relates to Eriochloa villosa. The description is as above.
In another assay the test system is Cyperus esculentus. The description is as above. The following applies: 8 g of ai/ha.
Source text: as §1, §6, §2, §7, §4, §5, §8

The test system of the next assay is Galium aparine. The assay is described as above.
In the next assay the test system is Matricaria inodora. The description is as above.
Source text: as §1, §6, §2, §7, §4, §5, §8

The next assay has as its system Alopecurus myosuroides. Described as above.
Source text: as §1, §6, §2, §7, §4, §5, §8

Another assay concerns Abutilon theophrasti. The assay is described as above.
Source text: as §1, §6, §2, §7, §4, §5, §8

The test system of another assay is Xanthium strumarium. Described as above.
Source text: as §1, §6, §2, §7, §4, §5, §8

In a further assay the test system is Avena fatua. Described as above.
Source text: as §1, §6, §2, §7, §4, §5, §8

For another assay, the system named is Cassia tora. The description is as above. As to the method:
as §1, §2, §3, §4, §5

The subject of the next assay is Lolium perenne. The description is as above.
The subject of another assay is test plants. As to the kind of experiment: Post-emergence test/greenhouse, % damage after three weeks (further test plants, Tables A-1-30 to A-1-104).
Source text: as §1, §6, §2, §7, §4, §5, §8

A further assay concerns Chenopodium album. Nature of the assay: Post-emergence test/greenhouse, % damage after three weeks.
Source text: as §1, §6, §2, §7, §4, §5, §8

For the next assay, the system named is Setaria viridis. The description is as above. The conditions noted are these: 15 g of ai/ha.
Source text: as §1, §6, §2, §7, §4, §5, §8

Setting [1] is: application rate 125 g of ai/ha.

For the compound `CCOC(=O)[C@@H](C)Oc1ccc(Oc2nc3ccc(Cl)cc3o2)cc1` [fenoxaprop-(P)-ethyl, reference compound], the Veronica persicaria observed in the assay on Veronica persicaria (8 g of ai/ha), in the assay with Veronica persicaria (15 g of ai/ha) and in the assay on Veronica persicaria (30 g of ai/ha) was 0% throughout. Besides, the Bromus secalinus observed in the assay on Bromus secalinus (8 g of ai/ha), in the assay with Bromus secalinus (15 g of ai/ha) and with Bromus secalinus (30 g of ai/ha) was 0% throughout. Also, the Ipomoea hederacea observed in the assay with Ipomoea hederacea (30 g of ai/ha) is on record as 0%.

`COc1nn(C(=O)NS(=O)(=O)c2ccccc2OC(F)(F)F)c(=O)n1C.[Na]` [flucarbazone-sodium, 4,5-dihydro-3-methoxy-4-methyl-5-oxo-N-[(2-trifluoromethoxyphenyl)-sulphonyl]-1-H-1,2,4-triazole-1-carboxamide sodium salt, reference compound]: the Veronica persicaria observed in the assay on Veronica persicaria (30 g of ai/ha) is recorded as 20%; in the assay on Veronica persicaria (60 g of ai/ha), 60%. Further, the Bromus secalinus observed in the assay with Bromus secalinus (60 g of ai/ha) is on record as 70%. In addition, the Viola arvensis observed in the assay with Viola arvensis came to 30%.

For the compound `COC(=O)c1ccc(C(F)(F)F)nc1S(=O)(=O)NC(=O)Nc1nc(OC)cc(OC)n1.[Na]` [flupyrsulfuron, N-(4,6-dimethoxypyrimidin-2-yl)-N′-(3-methoxycarbonyl-6-trifluoromethylpyridin-2-ylsulphonyl)urea sodium salt, reference compound], the pest or weed control at 2 g/ha with Bromus secalinus (Bromus secalinus, post-emergence, 504 h, 2 g of ai/ha, read-out: Bromus secalinus observed) turned out to be 0%. Further, in the assay on Bromus secalinus (Bromus secalinus, post-emergence, 504 h, 4 g of ai/ha, read-out: Bromus secalinus observed), the pest or weed control at 4 g/ha was 0%. Besides, the values for the Polygonum convolvolus observed with Polygonum convolvolus (2 g of ai/ha) and in the assay on Polygonum convolvolus (4 g of ai/ha) were 70% and 80%, respectively. Further, in the assay on Digitaria sanguinalis (4 g of ai/ha), the Digitaria sanguinalis observed came out at 20%.

As for `COc1cc(OC)nc(NC(=O)NS(=O)(=O)c2cc(NC=O)ccc2C(=O)N(C)C)n1` [foramsulfuron], the Eriochloa villosa observed in the assay with Eriochloa villosa (15 g of ai/ha) was found to be 60%. Further, the Cyperus esculentus observed with Cyperus esculentus was found to be 80%. In the assay with Ipomoea hederacea (15 g of ai/ha), the Ipomoea hederacea observed stood at 80%.

`Cc1cc(Cl)ccc1O[C@@H](C)C(=O)O` [mecoprop-P]: the Galium aparine observed in the assay with Galium aparine (125 g of ai/ha) is given as 20%; in the assay on Galium aparine (250 g of ai/ha), 40%. For the same compound, the Matricaria inodora observed in the assay on Matricaria inodora (125 g of ai/ha) and with Matricaria inodora (250 g of ai/ha) was 0% throughout. Moreover, the values for the Digitaria sanguinalis observed in the assay with Digitaria sanguinalis (125 g of ai/ha) and with Digitaria sanguinalis (250 g of ai/ha) were 40% and 70%, respectively.

As for `CS(=O)(=O)c1ccc(C(=O)C2C(=O)CCCC2=O)c([N+](=O)[O-])c1` [mesotrione], the pest or weed control at 15 g/ha in the assay on Bromus secalinus (Bromus secalinus, post-emergence, 504 h, 15 g of ai/ha, read-out: Bromus secalinus observed) was found to be 0%. In addition, in the assay with Bromus secalinus (Bromus secalinus, post-emergence, 504 h, 30 g of ai/ha, read-out: Bromus secalinus observed), the pest or weed control at 30 g/ha amounted to 0%. Further, the Polygonum convolvolus observed in the assay with Polygonum convolvolus (15 g of ai/ha) was 50%. Also, the Alopecurus myosuroides observed with Alopecurus myosuroides (15 g of ai/ha) and in the assay on Alopecurus myosuroides (30 g of ai/ha) was 0% throughout.

In the case of `COc1cc(OC)n2nc(S(=O)(=O)Nc3c(Cl)ccc(C)c3Cl)nc2n1` [metosulam, N-(2,6-dichloro-3-methylphenyl)-5,7-dimethoxy-1,2,4-tri-azolo[1,5-a]-pyrimidine-2-sulphonamide, reference compound], the Veronica persicaria observed with Veronica persicaria (4 g of ai/ha) was 80%. Further, the Digitaria sanguinalis observed in the assay with Digitaria sanguinalis (8 g of ai/ha) is given as 30%. In addition, the “Activity against Abutilon theophrasti (%)” value in the assay with Abutilon theophrasti (12.5 g of a.i./ha) is reported as 60%; in the assay on Abutilon theophrasti (25 g of a.i./ha) it was 70%. Besides, the “Activity against Xanthium strumarum (%)” value in the assay on Xanthium strumarium (12.5 g of a.i./ha) came out at 60%; in the assay with Xanthium strumarium (25 g of a.i./ha) it was 90%. Moreover, the Avena fatua observed with Avena fatua (8 g of ai/ha) is on record as 0%.

Regarding `COc1cc(OC)nc(NC(=O)NS(=O)(=O)c2ncccc2C(=O)N(C)C)n1` [nicosulfuron], the Eriochloa villosa observed in the assay with Eriochloa villosa (30 g of ai/ha) is listed as 90%.

For the compound `O=C(Nc1ccc(F)cc1)c1cccc(Oc2cccc(C(F)(F)F)c2)n1` [picolinafen], the Cassia tora observed in the assay with Cassia tora (30 g of ai/ha) was 70%. For the same compound, the Eriochloa villosa observed in the assay on Eriochloa villosa (15 g of ai/ha) was 30%; in the assay on Eriochloa villosa (30 g of ai/ha), 80%. For the same compound, the Lolium perenne observed in the assay with Lolium perenne (15 g of ai/ha) was 0%; in the assay with Lolium perenne (30 g of ai/ha), 20%.

For `CCCOc1nn(C(=O)[N-]S(=O)(=O)c2ccccc2C(=O)OC)c(=O)n1C.[Na+]` [propoxycarbazone-sodium], the Cassia tora observed with Cassia tora (30 g of ai/ha) was 30%. Moreover, the Veronica persicaria observed with Veronica persicaria (60 g of ai/ha) was found to be 40%. Further, the Polygonum convolvolus observed in the assay on Polygonum convolvolus (30 g of ai/ha) and with Polygonum convolvolus (60 g of ai/ha) was 0% throughout.

Consider `CCS(=O)(=O)c1cccnc1S(=O)(=O)NC(=O)Nc1nc(OC)cc(OC)n1` [rimsulfuron], for which the Cassia tora observed in the assay with Cassia tora (4 g of ai/ha) is 60%; in the assay with Cassia tora (8 g of ai/ha), 80%. Besides, in the assay on Abutilon theophrasti (4 g of ai/ha), the Abutilon theophrasti observed came to 70%. The Avena fatua observed with Avena fatua (4 g of ai/ha) and with Avena fatua (8 g of ai/ha) was 70% throughout.

flufenacet: the Bromus secalinus observed in the assay on Bromus secalinus (application rate 30 g of ai/ha) is recorded as 0%; in the assay on Bromus secalinus (application rate 60 g of ai/ha), 20%; in the assay with Bromus secalinus (setting [1]), 40%. The Polygonum convolvolus observed in the assay on test plants (application rate 30 g of ai/ha), in the assay on test plants (application rate 60 g of ai/ha) and with test plants (setting [1]) was 0% each time. Also, the Chenopodium album observed in the assay with Chenopodium album (application rate 30 g of ai/ha), in the assay with Chenopodium album (application rate 60 g of ai/ha) and in the assay with Chenopodium album (setting [1]) was 0% in each case.

With glyphosate, the Veronica persicaria observed in the assay with Veronica persicaria (250 g of ai/ha) came to 50%. Further, the results for the Bromus secalinus observed in the assay with Bromus secalinus (125 g of ai/ha) and with Bromus secalinus (250 g of ai/ha) were 20% and 80%, respectively. The Eriochloa villosa observed with Eriochloa villosa (250 g of ai/ha) turned out to be 70%.

Consider thifensulfuron-methyl, for which the Bromus secalinus observed in the assay on Bromus secalinus (8 g of ai/ha) and with Bromus secalinus (15 g of ai/ha) was 0% throughout. In the assay on Eriochloa villosa (15 g of ai/ha), this compound displayed an Eriochloa villosa observed of 10%. Further, the Setaria viridis observed with Setaria viridis came out at 0%.
